Source: paper PMC9569420 (Communications Biology, 2022)

Key:
GCK/MAP4K2 = biological target: T1, GCK/MAP4K2 (Homo sapiens, UniProt Q12851); experiment: HotSpot kinase assay; type: biochemical; conditions: read-out: % Enzyme Activity (relative to DMSO controls)
T1 construct: purchased Reaction Biology Corporation

PtdS and Akt = experiment: translocation of PtdS and Akt to the outer leaflet (microscopy), HSV-2 infected HaCat; type: cell-based, human; conditions: 10µM
MEKK2 = biological target: T2, MEKK2 (Homo sapiens, UniProt Q9Y2U5); experiment: HotSpot kinase assay; type: biochemical; conditions: read-out: % Enzyme Activity (relative to DMSO controls)
T2 construct: purchased Reaction Biology Corporation
T2 sequence (Q9Y2U5 whole entry): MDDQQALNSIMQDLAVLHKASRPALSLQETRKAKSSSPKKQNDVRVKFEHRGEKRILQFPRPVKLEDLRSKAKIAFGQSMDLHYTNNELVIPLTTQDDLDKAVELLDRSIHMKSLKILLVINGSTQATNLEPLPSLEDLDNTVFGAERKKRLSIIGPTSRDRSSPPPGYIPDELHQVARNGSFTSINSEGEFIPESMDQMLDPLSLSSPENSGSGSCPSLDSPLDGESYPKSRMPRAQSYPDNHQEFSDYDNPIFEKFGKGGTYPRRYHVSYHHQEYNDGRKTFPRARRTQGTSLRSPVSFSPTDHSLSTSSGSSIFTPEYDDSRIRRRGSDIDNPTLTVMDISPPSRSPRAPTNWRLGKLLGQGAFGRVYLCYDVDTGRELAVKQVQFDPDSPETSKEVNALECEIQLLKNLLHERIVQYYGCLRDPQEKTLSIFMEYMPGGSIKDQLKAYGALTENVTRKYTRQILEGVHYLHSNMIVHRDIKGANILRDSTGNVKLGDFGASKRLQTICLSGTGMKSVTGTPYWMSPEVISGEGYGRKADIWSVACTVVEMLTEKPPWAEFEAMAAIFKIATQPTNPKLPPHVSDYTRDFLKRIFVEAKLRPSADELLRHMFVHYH

CLK3 = biological target: T3, CLK3 (Homo sapiens, UniProt P49761); experiment: HotSpot kinase assay; type: biochemical; conditions: read-out: % Enzyme Activity (relative to DMSO controls)
T3 construct: purchased Reaction Biology Corporation

PBK/TOPK = biological target: T4, PBK/TOPK (Homo sapiens, UniProt Q96KB5); experiment: HotSpot kinase assay; type: biochemical; conditions: read-out: % Enzyme Activity (relative to DMSO controls)
T4 construct: purchased Reaction Biology Corporation

CK1a1 = biological target: T5, CK1a1 (Homo sapiens, UniProt P48729); experiment: HotSpot kinase assay; type: biochemical; conditions: read-out: % Enzyme Activity (relative to DMSO controls)
T5 construct: purchased Reaction Biology Corporation

ALK5/TGFBR1 = biological target: T6, ALK5/TGFBR1 (Homo sapiens, UniProt P36897); experiment: HotSpot kinase assay; type: biochemical; conditions: read-out: % Enzyme Activity (relative to DMSO controls)
T6 construct: purchased Reaction Biology Corporation

FAK/PTK2 = biological target: T7, FAK/PTK2 (Homo sapiens, UniProt Q05397); experiment: HotSpot kinase assay; type: biochemical; conditions: read-out: % Enzyme Activity (relative to DMSO controls)
T7 construct: purchased Reaction Biology Corporation

FLT3 = biological target: T8, FLT3 (Homo sapiens, UniProt P36888); experiment: HotSpot kinase assay; type: biochemical; conditions: read-out: % Enzyme Activity (relative to DMSO controls)
T8 construct: purchased Reaction Biology Corporation
T8 sequence (P36888 27-993): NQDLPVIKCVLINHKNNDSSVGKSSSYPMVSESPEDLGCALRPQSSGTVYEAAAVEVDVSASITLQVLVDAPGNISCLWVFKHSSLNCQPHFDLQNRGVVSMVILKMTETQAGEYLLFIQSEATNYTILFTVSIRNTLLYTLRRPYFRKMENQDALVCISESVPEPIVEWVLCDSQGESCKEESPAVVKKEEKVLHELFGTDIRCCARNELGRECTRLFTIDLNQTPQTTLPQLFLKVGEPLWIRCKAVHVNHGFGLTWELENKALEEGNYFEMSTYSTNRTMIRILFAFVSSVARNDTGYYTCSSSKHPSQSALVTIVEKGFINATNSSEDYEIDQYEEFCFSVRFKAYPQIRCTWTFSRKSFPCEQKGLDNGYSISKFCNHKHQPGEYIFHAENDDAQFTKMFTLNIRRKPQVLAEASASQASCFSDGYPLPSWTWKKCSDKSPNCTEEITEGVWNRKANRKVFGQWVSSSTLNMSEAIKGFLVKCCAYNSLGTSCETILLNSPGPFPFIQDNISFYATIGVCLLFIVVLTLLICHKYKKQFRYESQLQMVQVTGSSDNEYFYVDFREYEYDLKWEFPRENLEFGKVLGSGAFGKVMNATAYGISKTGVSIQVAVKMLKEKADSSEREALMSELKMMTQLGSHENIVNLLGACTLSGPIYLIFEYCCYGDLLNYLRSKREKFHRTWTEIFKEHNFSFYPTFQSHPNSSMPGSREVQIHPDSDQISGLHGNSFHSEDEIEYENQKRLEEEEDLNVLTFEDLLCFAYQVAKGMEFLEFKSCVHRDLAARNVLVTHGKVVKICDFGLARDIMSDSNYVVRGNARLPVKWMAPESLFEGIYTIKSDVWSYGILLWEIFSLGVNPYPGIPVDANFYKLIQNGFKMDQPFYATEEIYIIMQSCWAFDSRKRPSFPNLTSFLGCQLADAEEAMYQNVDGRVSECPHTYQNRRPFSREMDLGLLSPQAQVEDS

EPHA2 = biological target: T9, EPHA2 (Homo sapiens, UniProt P29317); experiment: HotSpot kinase assay; type: biochemical; conditions: read-out: % Enzyme Activity (relative to DMSO controls)
T9 construct: purchased Reaction Biology Corporation

GRK2 = biological target: T10, GRK2 (Homo sapiens, UniProt P25098); experiment: biochemical; conditions: read-out: % Enzyme Activity (relative to DMSO controls)
T10 construct: purchased Reaction Biology Corporation

FGR = biological target: T11, FGR (Homo sapiens, UniProt P09769); experiment: HotSpot kinase assay; type: biochemical; conditions: read-out: % Enzyme Activity (relative to DMSO controls)
T11 construct: purchased Reaction Biology Corporation

P38b/MAPK11 = biological target: T12, P38b/MAPK11 (Homo sapiens, UniProt Q15759); experiment: HotSpot kinase assay; type: biochemical; conditions: read-out: % Enzyme Activity (relative to DMSO controls)
T12 construct: purchased Reaction Biology Corporation

CK1g1 = biological target: T13, CK1g1 (Homo sapiens, UniProt Q9HCP0); experiment: HotSpot kinase assay; type: biochemical; conditions: read-out: % Enzyme Activity (relative to DMSO controls)
T13 construct: purchased Reaction Biology Corporation

MNK1 = biological target: T14, MNK1 (Homo sapiens, UniProt Q9BUB5); experiment: HotSpot kinase assay; type: biochemical; conditions: read-out: % Enzyme Activity (relative to DMSO controls)
T14 construct: purchased Reaction Biology Corporation
T14 sequence (Q9BUB5 whole entry): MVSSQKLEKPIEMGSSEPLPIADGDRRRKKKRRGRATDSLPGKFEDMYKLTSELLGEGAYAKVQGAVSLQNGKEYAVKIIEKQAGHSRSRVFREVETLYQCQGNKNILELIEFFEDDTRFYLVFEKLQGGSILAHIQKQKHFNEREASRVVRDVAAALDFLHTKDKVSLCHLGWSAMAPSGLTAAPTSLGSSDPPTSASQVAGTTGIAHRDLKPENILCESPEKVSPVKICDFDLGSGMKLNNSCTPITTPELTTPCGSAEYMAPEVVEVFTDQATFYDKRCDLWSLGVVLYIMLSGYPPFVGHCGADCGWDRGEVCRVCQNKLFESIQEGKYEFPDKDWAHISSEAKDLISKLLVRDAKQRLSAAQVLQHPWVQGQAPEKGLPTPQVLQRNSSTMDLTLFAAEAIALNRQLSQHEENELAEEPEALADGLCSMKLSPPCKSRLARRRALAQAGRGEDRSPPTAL

MEKK1 = biological target: T15, MEKK1 (Homo sapiens, UniProt Q13233); experiment: HotSpot kinase assay; type: biochemical; conditions: read-out: % Enzyme Activity (relative to DMSO controls)
T15 construct: purchased Reaction Biology Corporation

HSV-2(G) = experiment: HSV plaque assay, primary vaginal cells; type: cell-based; conditions: Human alphaherpesvirus 2, read-out: inhibition of HSV-2 infection
Protocol: After 48 h incubation, plaques were counted by immunoassay using an anti–human IgG antibody peroxidase conjugate (PA1-86064, Thermo Fisher)[33]. […] Western blots were prepared and probed for gD as a marker of bound virus and β-actin as a control.

DMPK = biological target: T16, DMPK (Homo sapiens, UniProt Q09013); experiment: HotSpot kinase assay; type: biochemical; conditions: read-out: % Enzyme Activity (relative to DMSO controls)
T16 construct: purchased Reaction Biology Corporation

Aurora A = biological target: T17, Aurora A (Homo sapiens, UniProt O14965); experiment: HotSpot kinase assay; type: biochemical; conditions: read-out: % Enzyme Activity (relative to DMSO controls)
T17 construct: purchased Reaction Biology Corporation

SGK2 = biological target: T18, SGK2 (Homo sapiens, UniProt Q9HBY8); experiment: HotSpot kinase assay; type: biochemical; conditions: read-out: % Enzyme Activity (relative to DMSO controls)
T18 construct: purchased Reaction Biology Corporation

DYRK2 = biological target: T19, DYRK2 (Homo sapiens, UniProt Q92630); experiment: HotSpot kinase assay; type: biochemical; conditions: read-out: % Enzyme Activity (relative to DMSO controls)
T19 construct: purchased Reaction Biology Corporation

EGFR = biological target: T20, EGFR (Homo sapiens, UniProt P00533); experiment: biochemical
T20 construct: purchased Reaction Biology Corporation
T20 sequence (P00533 25-1210): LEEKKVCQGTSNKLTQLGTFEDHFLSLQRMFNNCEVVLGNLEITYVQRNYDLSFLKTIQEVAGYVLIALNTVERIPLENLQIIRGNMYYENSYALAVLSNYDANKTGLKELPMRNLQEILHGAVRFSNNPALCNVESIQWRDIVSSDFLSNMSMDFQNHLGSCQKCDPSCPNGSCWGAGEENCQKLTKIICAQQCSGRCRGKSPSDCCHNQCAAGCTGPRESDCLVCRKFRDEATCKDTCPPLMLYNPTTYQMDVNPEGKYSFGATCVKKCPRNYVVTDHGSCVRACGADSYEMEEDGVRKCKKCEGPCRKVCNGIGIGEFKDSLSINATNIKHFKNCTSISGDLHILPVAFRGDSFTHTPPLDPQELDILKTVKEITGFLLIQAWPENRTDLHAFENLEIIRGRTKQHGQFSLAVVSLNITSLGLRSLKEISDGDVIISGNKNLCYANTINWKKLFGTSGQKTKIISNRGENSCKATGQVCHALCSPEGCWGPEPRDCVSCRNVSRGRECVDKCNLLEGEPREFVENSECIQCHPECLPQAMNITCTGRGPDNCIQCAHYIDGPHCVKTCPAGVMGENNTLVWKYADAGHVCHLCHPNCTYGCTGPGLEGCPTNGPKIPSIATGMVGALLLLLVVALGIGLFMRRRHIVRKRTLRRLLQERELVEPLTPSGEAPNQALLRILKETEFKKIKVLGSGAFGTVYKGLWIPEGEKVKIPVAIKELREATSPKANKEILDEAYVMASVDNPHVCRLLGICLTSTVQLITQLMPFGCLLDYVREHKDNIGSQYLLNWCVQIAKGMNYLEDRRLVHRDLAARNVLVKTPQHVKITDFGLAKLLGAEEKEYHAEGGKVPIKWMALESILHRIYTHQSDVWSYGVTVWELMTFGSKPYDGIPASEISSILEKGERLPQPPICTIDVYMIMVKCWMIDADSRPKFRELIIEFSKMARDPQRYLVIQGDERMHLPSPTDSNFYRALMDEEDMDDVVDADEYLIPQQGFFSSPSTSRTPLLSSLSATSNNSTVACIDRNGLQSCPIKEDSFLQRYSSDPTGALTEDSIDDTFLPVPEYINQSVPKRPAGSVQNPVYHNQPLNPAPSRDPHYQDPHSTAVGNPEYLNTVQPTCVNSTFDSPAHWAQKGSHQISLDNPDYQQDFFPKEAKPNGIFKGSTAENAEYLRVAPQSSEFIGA

VSV-S = type: cell-based, VSV pseudotyped with SARS-CoV-2 spike
MLK4 = biological target: T21, MLK4 (Homo sapiens, UniProt Q5TCX8); experiment: HotSpot kinase assay; type: biochemical; conditions: read-out: % Enzyme Activity (relative to DMSO controls)
T21 construct: purchased Reaction Biology Corporation

MEKK3 = biological target: T22, MEKK3 (Homo sapiens, UniProt Q99759); experiment: HotSpot kinase assay; type: biochemical; conditions: read-out: % Enzyme Activity (relative to DMSO controls)
T22 construct: purchased Reaction Biology Corporation

NEK1 = biological target: T23, NEK1 (Homo sapiens, UniProt Q96PY6); experiment: HotSpot kinase assay; type: biochemical; conditions: read-out: % Enzyme Activity (relative to DMSO controls)
T23 construct: purchased Reaction Biology Corporation

BRSK2 = biological target: T24, BRSK2 (Homo sapiens, UniProt Q8IWQ3); experiment: HotSpot kinase assay; type: biochemical; conditions: read-out: % Enzyme Activity (relative to DMSO controls)
T24 construct: purchased Reaction Biology Corporation

PKD2/PRKD2 = biological target: T25, PKD2/PRKD2 (Homo sapiens, UniProt Q9BZL6); experiment: HotSpot kinase assay; type: biochemical; conditions: read-out: % Enzyme Activity (relative to DMSO controls)
T25 construct: purchased Reaction Biology Corporation

EPHB1 = biological target: T26, EPHB1 (Homo sapiens, UniProt P54762); experiment: HotSpot kinase assay; type: biochemical; conditions: read-out: % Enzyme Activity (relative to DMSO controls)
T26 construct: purchased Reaction Biology Corporation
T26 sequence (P54762 18-984): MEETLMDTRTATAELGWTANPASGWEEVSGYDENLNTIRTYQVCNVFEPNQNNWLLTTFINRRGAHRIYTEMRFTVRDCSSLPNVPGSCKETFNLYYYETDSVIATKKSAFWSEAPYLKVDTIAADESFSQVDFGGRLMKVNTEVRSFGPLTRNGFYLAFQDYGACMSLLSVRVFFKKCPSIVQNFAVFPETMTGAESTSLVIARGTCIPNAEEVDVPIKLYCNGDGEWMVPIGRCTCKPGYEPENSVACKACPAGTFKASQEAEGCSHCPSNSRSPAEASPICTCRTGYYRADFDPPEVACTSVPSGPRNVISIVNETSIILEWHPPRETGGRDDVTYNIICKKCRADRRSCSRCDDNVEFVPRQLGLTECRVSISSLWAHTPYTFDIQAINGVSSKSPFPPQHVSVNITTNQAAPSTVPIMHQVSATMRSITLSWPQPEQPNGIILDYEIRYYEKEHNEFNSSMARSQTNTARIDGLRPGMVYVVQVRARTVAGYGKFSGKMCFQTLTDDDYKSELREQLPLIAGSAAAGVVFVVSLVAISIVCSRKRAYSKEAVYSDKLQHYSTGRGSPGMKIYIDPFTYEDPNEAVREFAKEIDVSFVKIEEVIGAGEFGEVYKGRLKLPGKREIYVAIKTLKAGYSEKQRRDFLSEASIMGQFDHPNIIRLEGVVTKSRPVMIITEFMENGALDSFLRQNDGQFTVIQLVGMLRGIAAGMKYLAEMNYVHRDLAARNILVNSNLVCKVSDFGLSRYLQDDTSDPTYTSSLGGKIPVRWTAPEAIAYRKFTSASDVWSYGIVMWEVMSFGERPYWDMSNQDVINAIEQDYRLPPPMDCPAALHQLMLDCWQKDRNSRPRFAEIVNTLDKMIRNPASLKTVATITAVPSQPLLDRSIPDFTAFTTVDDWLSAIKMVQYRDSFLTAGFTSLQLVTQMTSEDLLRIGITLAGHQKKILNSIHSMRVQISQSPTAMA

TNK1 = biological target: T27, TNK1 (Homo sapiens, UniProt Q13470); experiment: HotSpot kinase assay; type: biochemical; conditions: read-out: % Enzyme Activity (relative to DMSO controls)
T27 construct: purchased Reaction Biology Corporation

PKCa = biological target: T28, PKCa (Homo sapiens, UniProt P17252); experiment: HotSpot kinase assay; type: biochemical; conditions: read-out: % Enzyme Activity (relative to DMSO controls)
T28 construct: purchased Reaction Biology Corporation

PIM3 = biological target: T29, PIM3 (Homo sapiens, UniProt Q86V86); experiment: HotSpot kinase assay; type: biochemical; conditions: read-out: % Enzyme Activity (relative to DMSO controls)
T29 construct: purchased Reaction Biology Corporation

CHK2 = biological target: T30, CHK2 (Homo sapiens, UniProt O96017); experiment: HotSpot kinase assay; type: biochemical; conditions: read-out: % Enzyme Activity (relative to DMSO controls)
T30 construct: purchased Reaction Biology Corporation

KSR2 = biological target: T31, KSR2 (Homo sapiens, UniProt Q6VAB6); experiment: biochemical; conditions: read-out: % Enzyme Activity (relative to DMSO controls)
T31 construct: purchased Reaction Biology Corporation

PKCb2 = biological target: T32, PKCb2 (Homo sapiens, UniProt P05771); experiment: HotSpot kinase assay; type: biochemical; conditions: read-out: % Enzyme Activity (relative to DMSO controls)
T32 construct: purchased Reaction Biology Corporation

CK1g2 = biological target: T33, CK1g2 (Homo sapiens, UniProt P78368); experiment: HotSpot kinase assay; type: biochemical; conditions: read-out: % Enzyme Activity (relative to DMSO controls)
T33 construct: purchased Reaction Biology Corporation

NEK2 = biological target: T34, NEK2 (Homo sapiens, UniProt P51955); experiment: HotSpot kinase assay; type: biochemical; conditions: read-out: % Enzyme Activity (relative to DMSO controls)
T34 construct: purchased Reaction Biology Corporation
T34 sequence (P51955 whole entry): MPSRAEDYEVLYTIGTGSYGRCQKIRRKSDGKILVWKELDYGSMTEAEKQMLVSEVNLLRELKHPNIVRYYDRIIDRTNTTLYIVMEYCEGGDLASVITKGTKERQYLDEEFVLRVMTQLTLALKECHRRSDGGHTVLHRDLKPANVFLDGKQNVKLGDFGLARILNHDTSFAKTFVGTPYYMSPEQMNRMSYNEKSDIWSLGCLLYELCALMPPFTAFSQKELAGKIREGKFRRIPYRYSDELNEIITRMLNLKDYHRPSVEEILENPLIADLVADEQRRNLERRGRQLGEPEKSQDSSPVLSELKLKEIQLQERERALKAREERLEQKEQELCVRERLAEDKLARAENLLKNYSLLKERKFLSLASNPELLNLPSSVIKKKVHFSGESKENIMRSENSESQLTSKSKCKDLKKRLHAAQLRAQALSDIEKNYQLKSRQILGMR

ERK2/MAPK1 = biological target: T35, ERK2/MAPK1 (Homo sapiens, UniProt P28482); experiment: HotSpot kinase assay; type: biochemical; conditions: read-out: % Enzyme Activity (relative to DMSO controls)
T35 construct: purchased Reaction Biology Corporation

PKG1a = biological target: T36, PKG1a (Homo sapiens, UniProt Q13976); experiment: HotSpot kinase assay; type: biochemical; conditions: read-out: % Enzyme Activity (relative to DMSO controls)
T36 construct: purchased Reaction Biology Corporation

CDK6/cyclin D3 = biological target: T37, CDK6/cyclin D3 (Homo sapiens, UniProt Q00534); experiment: HotSpot kinase assay; type: biochemical; conditions: read-out: % Enzyme Activity (relative to DMSO controls)
T37 construct: purchased Reaction Biology Corporation

PKG2/PRKG2 = biological target: T38, PKG2/PRKG2 (Homo sapiens, UniProt Q13237); experiment: HotSpot kinase assay; type: biochemical; conditions: read-out: % Enzyme Activity (relative to DMSO controls)
T38 construct: purchased Reaction Biology Corporation

MEK2 = biological target: T39, MEK2 (Homo sapiens, UniProt P36507); experiment: HotSpot kinase assay; type: biochemical; conditions: read-out: % Enzyme Activity (relative to DMSO controls)
T39 construct: purchased Reaction Biology Corporation
T39 sequence (P36507 whole entry): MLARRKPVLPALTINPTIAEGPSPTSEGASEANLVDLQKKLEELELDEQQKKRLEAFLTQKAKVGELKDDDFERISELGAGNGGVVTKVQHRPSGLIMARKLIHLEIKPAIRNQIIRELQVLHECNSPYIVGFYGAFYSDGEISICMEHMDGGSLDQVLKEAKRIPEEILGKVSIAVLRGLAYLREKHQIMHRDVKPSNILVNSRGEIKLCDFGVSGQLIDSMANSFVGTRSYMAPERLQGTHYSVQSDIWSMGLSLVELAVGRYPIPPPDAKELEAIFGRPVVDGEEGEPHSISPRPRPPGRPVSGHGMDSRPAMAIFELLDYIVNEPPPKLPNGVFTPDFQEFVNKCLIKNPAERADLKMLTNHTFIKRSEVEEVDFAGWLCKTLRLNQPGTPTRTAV

SMILES: CO[C@@H]1[C@H](N(C)C(=O)CCC(=O)NCc2cn(CCCS(=O)(=O)O)nn2)C[C@H]2O[C@]1(C)n1c3ccccc3c3c4c(c5c6ccccc6n2c5c31)C(=O)NC4 [CIMSS]
- remaining activity at 10 µM (GCK/MAP4K2): 4.74%
- translocation of PtdS and Akt to the outer leaflet of the plasma membrane (PtdS and Akt): did not block
- remaining activity at 10 µM (MEKK2): 8.32%
- remaining activity at 10 µM (CLK3): 35.4%
- remaining activity at 10 µM (PBK/TOPK): 69.8%
- remaining activity at 10 µM (CK1a1): 98.3%
- remaining activity at 10 µM (ALK5/TGFBR1): 86.6%
- remaining activity at 10 µM (FAK/PTK2): 15.5%
- remaining activity at 10 µM (FLT3): 4.55%
- remaining activity at 10 µM (EPHA2): 33.5%
- remaining activity at 10 µM (GRK2): 29.5%
- remaining activity at 10 µM (FGR): 1.68%
- remaining activity at 10 µM (P38b/MAPK11): 84.5%
- remaining activity at 10 µM (CK1g1): 95.9%
- remaining activity at 10 µM (MNK1): 42.6%
- remaining activity at 10 µM (MEKK1): 67%
- inhibition at 10 µM (HSV-2(G)): > 75%
- remaining activity at 10 µM (DMPK): 76.5%
- remaining activity at 10 µM (Aurora A): 1.92%
- remaining activity at 10 µM (SGK2): 22.6%
- remaining activity at 10 µM (DYRK2): 9.12%
- IC50 (EGFR; Supplementary Table 1, read-out: IC50 (Molar concentration)): 1610 nM
- remaining activity at 10 µM (EGFR; read-out: % Enzyme Activity (relative to DMSO controls), 10µM): 17.4%
- VSV-S infection (VSV-S): inhibited
- remaining activity at 10 µM (MLK4): 0.87%
- remaining activity at 10 µM (MEKK3): 6.32%
- remaining activity at 10 µM (NEK1): 5.88%
- remaining activity at 10 µM (BRSK2): 1.66%
- remaining activity at 10 µM (PKD2/PRKD2): 11.9%
- remaining activity at 10 µM (EPHB1): 1.91%
- remaining activity at 10 µM (TNK1): 3.88%
- remaining activity at 10 µM (PKCa): 0.86%
- remaining activity at 10 µM (PIM3): 2.51%
- remaining activity at 10 µM (CHK2): 25.4%
- remaining activity at 10 µM (KSR2): 108%
- remaining activity at 10 µM (PKCb2): 1.71%
- remaining activity at 10 µM (CK1g2): 98.5%
- remaining activity at 10 µM (NEK2): 18.8%
- remaining activity at 10 µM (ERK2/MAPK1): 75.3%
- remaining activity at 10 µM (PKG1a): 7.02%
- remaining activity at 10 µM (CDK6/cyclin D3): 56.8%
- remaining activity at 10 µM (PKG2/PRKG2): 1.99%
- remaining activity at 10 µM (MEK2): 68%
